Measurements published in US9617283B2, “Bicyclic heterocycle compounds and their uses in therapy” (ASTEX THERAPEUTICS LIMITED, priority 2012, dated 2017).
Counter-ions that a name gives are not always drawn. Like-named read-outs stand apart in the source and are kept apart here.

Key:
[1] = biological target: T1, BIR3 domain of human XIAP (residues 252-350) (Homo sapiens, UniProt P98170); experiment: XIAP in vitro competitive displacement binding assay (fluorescence polarization); conditions: percent inhibition (PI) at 0.04 μM; for Xiap IC50 or PI μM: 60 min, dihydrochloride, 0.04 µM; for inhibition at 0.04 µM: 1 h, read-out: Xiap IC50 or PI μM
T1 construct: BIR3 domain of human XIAP (residues 252-350); His-tag (cleaved yes); made in house; host or cells: Escherichia coli

[2] = biological target: T2, BIR3 domain of human cIAP-1 (residues 267-363) (Homo sapiens, UniProt Q13490); experiment: cIAP-1 in vitro competitive displacement binding assay (fluorescence polarization)
T2 construct: human cIAP-1 (residues 267-363) fused to a GST-tag; GST-tag (cleaved yes); made in house; host or cells: Escherichia coli

[3] = test system: EVSA-T (human breast carcinoma); experiment: Anti-proliferative activity, Alamar Blue assay, EVSA-T; assay type: cell-based
Description: Anti-Proliferative Activity
The method is based on the ability of viable cells to reduce resazurin to its fluorescent product resorufin. For each proliferation assay cells are plated onto 96 well plates and allowed to recover for 16 hours prior to the addition of inhibitor compounds (in 0.1% DMSO v/v) for a further 72 hours. […] The anti-proliferative activities of compounds of the invention can be determined by measuring the ability of the compounds to inhibit growth in 3 cancer cell lines: • EVSA-T (human breast carcinoma) DSMZ cat. no.

[4] = EVSA-T cell line, 72 hours, Alamar Blue, dihydrochloride, read-out: EVSA-T prolif
[5] = Homo sapiens, EVSA-T, read-out: EC50 in EVSA-T cell line assays
[6] = Homo sapiens, EVSA-T, 72 h, EVSA-T cell line, 72 hours, Alamar Blue, read-out: EVSA-T prolif

T1 sequence (P98170 252-350): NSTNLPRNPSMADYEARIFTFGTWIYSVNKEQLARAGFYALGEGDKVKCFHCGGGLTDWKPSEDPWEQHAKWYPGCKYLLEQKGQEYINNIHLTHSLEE
T2 sequence (Q13490 267-363): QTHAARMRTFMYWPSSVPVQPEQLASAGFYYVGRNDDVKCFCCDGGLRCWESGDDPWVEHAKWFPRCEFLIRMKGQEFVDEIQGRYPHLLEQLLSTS

| SMILES | Xiap IC50 or PI μM [1] | inhibition at 0.04 µM ([2]; 3 h, percent inhibition (PI) at 0.04 μM, read-out: cIAP1 IC50 or PI μM) | EC50 [3, 4] | cIAP1 IC50 or PI μM ([2]; percent inhibition (PI) at […], 180 min, dihydrochloride, […]) | EC50 [3, 5] | inhibition at 0.04 µM [1] | EC50 [3, 6] |
| --- | --- | --- | --- | --- | --- | --- | --- |
| CCCC(O)c1cnc2c(c1)N(C(=O)CN1C[C@@H](C)NC[C@@H]1CN1Cc3ccccc3C1=O)CC2(C)C (single isomer, unassigned) [Example 91, dihydrochloride] | 40%@0.04 | 53% | 330 nM | – | – | – | – |
| CCC1CN(C[C@H]2CN[C@H](C)CN2CC(=O)N2CC(C)(C)c3ncc([C@@H](O)c4ccc(F)cc4)cc32)C(=O)CO1 (single isomer, unassigned) [Example 111, (R or S)-6-ethyl-4-{[(2R,5R)-1-(2-{6-[(S)-(4-Fluorophenyl)(hydroxy)methyl]-3,3-dimethyl-1H,2H,3H-pyrrolo[3,2-b]pyridin-1-yl}-2-oxoethyl)-5-methylpiperazin-2-yl]methyl}morpholin-3-one dihydrochloride] | 68%@0.04 | – | 77 nM | 62%@0.012 | < 1000 nM | – | – |
| C[C@@H]1CN(CC(=O)N2CC(C)(C)c3ncc(Cc4ccc(F)cc4F)cc32)[C@@H](CN2Cc3ccc(C#N)cc3C2=O)CN1 [Example 112, 2-{[(2R,5R)-1-(2-{6-[(2,4-Difluorophenyl)methyl]-3,3-dimethyl-1H,2H,3H-pyrrolo[3,2-b]pyridin-1-yl}-2-oxoethyl)-5-methylpiperazin-2-yl]methyl}-3-oxo-2,3-dihydro-1H-isoindole-5-carbonitrile dihydrochloride] | – | – | – | – | < 1000 nM | 85% | 2.7 nM |
| C[C@@H]1CN(CC(=O)N2CC(C)(C)c3nnc(Cc4ccc(F)cc4F)cc32)[C@@H](CN2Cc3cccc(F)c3C2=O)CN1 [Example 113, 2-{[(2R,5R)-1-(2-{3-[(2,4-Difluorophenyl)methyl]-7,7-dimethyl-5H,6H,7H-pyrrolo[3,2-c]pyridazin-5-yl}-2-oxoethyl)-5-methylpiperazin-2-yl]methyl}-7-fluoro-2,3-dihydro-1H-issoindol-1-one dihydrochloride] | – | – | – | – | < 1000 nM | 69% | 0.62 nM |
| C[C@@H]1CN(CC(=O)N2CC(C)(C)c3ncc(Cc4ccc(F)cc4F)cc32)[C@@H](CN2Cc3c(O)cccc3C2=O)CN1 [Example 118, 2-{[(2R,5R)-1-(2-{6-[(2,4-Difluorophenyl)methyl]-3,3-dimethyl-1H,2H,3H-pyrrolo[3,2-b]pyridin-1-yl}-2-oxoethyl)-5-methylpiperazin-2-yl]methyl}-4-hydroxy-2,3-dihydro-1H-isoindol-1-one dihydrochloride] | – | – | – | – | < 1000 nM | 72% | 6.4 nM |
